Data from PMC8961587, “Synthesis and Structure–Activity Relationships of Novel Non-Steroidal CYP17A1 Inhibitors as Potential Prostate Cancer Agents” (Biomolecules, 2022).

Target: T1, CYP17A1 (Homo sapiens, UniProt P05093)
T1 sequence (P05093 1-508): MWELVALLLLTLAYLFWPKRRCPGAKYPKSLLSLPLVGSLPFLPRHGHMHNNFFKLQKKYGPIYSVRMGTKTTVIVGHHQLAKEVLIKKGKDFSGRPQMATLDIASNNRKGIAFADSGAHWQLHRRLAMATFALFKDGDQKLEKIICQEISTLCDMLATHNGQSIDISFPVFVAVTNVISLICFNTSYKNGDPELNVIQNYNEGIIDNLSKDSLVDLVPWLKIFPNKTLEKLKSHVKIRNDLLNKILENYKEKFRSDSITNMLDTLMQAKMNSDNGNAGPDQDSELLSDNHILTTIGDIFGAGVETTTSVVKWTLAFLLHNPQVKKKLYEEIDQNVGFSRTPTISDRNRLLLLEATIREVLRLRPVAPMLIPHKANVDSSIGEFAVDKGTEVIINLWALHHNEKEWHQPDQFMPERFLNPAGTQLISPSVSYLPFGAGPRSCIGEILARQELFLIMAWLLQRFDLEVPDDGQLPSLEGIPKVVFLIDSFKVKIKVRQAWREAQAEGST
Experiment: […]α-hydroxylase activity, conversion of […]-progesterone to […]OH-progesterone, TLC; enzyme source not given
Type: cell-based

Row | IC50 [nM] | Structure (SMILES)
1 | 1200 | c1ccc2c(c1)ncn2-c1ccc(NC2CCCCC2)cc1 [compound 2]
2 | 2600 | Cc1cc(Nc2cccnc2)ccc1-n1ccc2ccccc21 [compound 20]
